Assay results reported in patent US8618289B2 (Ambit Biosciences Corporation, priority 2008, dated 2013).
Counter-ions that a name gives are not always drawn.

What was measured:
[1] = target: RAF kinases (Homo sapiens, UniProt P04049); settings: read-out: RAF1 Kd; RAF1
[2] = target: RAF kinases (Homo sapiens, UniProt P15056); settings: read-out: BRAF WT Kd; BRAF WT
[3] = target: RAF kinases (Homo sapiens, UniProt P15056, V600E); settings: read-out: BRAF V600E Kd; BRAF V600E
[4] = test system: MEK1 phosphorylation in the A375 human melanoma cell line; assay: cells; settings: A-375, read-out: pMEK IC50
[5] = test system: A375 cells; assay: cells; settings: Homo sapiens, A-375, read-out: A375 Viability EC50

Chain of RAF kinases (Homo sapiens, UniProt P04049) (P04049 whole entry): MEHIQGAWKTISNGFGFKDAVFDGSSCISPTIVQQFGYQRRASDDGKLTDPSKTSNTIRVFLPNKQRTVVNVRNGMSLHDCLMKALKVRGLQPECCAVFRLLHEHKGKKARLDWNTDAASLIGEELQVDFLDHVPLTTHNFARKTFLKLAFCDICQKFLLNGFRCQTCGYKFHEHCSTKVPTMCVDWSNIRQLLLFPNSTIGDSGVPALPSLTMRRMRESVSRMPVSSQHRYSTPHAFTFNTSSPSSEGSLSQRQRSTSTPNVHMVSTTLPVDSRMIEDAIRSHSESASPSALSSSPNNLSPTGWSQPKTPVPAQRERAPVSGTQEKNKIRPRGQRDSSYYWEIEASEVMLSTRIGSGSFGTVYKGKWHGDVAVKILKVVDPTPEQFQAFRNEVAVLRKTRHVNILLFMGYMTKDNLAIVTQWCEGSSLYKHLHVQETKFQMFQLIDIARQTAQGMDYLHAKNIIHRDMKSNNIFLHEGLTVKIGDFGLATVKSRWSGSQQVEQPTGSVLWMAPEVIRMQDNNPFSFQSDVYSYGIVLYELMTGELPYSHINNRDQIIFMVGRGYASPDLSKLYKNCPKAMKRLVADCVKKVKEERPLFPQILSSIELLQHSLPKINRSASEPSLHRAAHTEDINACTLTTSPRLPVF
Chain of RAF kinases (Homo sapiens, UniProt P15056) (P15056 whole entry): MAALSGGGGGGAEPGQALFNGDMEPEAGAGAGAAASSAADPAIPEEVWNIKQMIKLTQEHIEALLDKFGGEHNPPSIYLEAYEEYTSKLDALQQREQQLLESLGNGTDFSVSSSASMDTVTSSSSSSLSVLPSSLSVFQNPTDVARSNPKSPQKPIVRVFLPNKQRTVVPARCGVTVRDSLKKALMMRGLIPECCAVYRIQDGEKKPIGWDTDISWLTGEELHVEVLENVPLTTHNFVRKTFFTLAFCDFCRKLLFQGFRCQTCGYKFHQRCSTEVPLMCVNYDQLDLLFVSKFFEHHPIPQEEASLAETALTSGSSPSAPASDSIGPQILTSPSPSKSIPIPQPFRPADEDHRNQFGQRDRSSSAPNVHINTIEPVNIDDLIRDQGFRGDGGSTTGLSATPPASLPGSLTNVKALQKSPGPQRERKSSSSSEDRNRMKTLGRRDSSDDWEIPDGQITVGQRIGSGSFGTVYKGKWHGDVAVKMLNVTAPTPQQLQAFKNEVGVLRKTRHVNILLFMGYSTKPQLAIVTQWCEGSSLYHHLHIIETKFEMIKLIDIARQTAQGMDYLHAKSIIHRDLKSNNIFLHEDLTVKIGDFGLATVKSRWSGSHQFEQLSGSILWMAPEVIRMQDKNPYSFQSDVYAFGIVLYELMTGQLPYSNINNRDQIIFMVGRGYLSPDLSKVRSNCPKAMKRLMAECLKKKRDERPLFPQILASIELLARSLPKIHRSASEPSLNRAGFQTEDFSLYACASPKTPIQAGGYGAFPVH
Chain of RAF kinases (Homo sapiens, UniProt P15056, V600E) (P15056 whole entry V600E): as the sequence (P15056 whole entry) above, with V600E counted along it

Structure (SMILES) | Kd [1] | Kd [2] | Kd [3] | IC50 [4] | EC50 [5]
COc1cc2ncnc(Oc3cc(NC(=O)Nc4cc(C(C)(C)F)no4)ccc3F)c2cc1OC [Ex293, 1-(3-(6,7-dimethoxyquinazolin-4-yloxy)-4-fluorophenyl)-3-(3-(2-fluoropropan-2-yl)isoxazol-5-yl)urea] | < 250 nM | < 250 nM | < 250 nM | < 250 nM | 250 to 500 nM
COCCOc1cc2ncnc(Oc3cccc(NC(=O)Nc4cc(C(F)(F)F)n(C)n4)c3)c2cc1OC [Ex 208, 1-{3-[6-methoxy-7-(2-methoxyethoxy)quinazolin-4-yloxy]phenyl}-3-[1-methyl-5-(trifluoromethyl)-1H-pyrazol-3-yl]urea] | < 250 nM | < 250 nM | < 250 nM | > 1000 nM | > 1000 nM
COCCOc1cc2ncnc(Oc3cccc(NC(=O)Nc4cc(C5CC5)no4)c3)c2cc1OC [Ex 214, 1-(3-cyclopropylisoxazol-5-yl)-3-(3-(6-methoxy-7-(2-methoxyethoxy)quinazolin-4-yloxy)phenyl)urea] | < 250 nM | < 250 nM | < 250 nM | > 1000 nM | > 1000 nM
COCCOc1cc2ncnc(Oc3cccc(NC(=O)Nc4cc(C5CCCC5)on4)c3)c2cc1OC [Ex 219, 1-(5-cyclopentylisoxazol-3-yl)-3-(3-(6-methoxy-7-(2-methoxyethoxy)quinazolin-4-yloxy)phenyl)urea] | < 250 nM | < 250 nM | < 250 nM | < 250 nM | 250 to 500 nM
CCOC(=O)Cn1nc(C(C)(C)C)cc1NC(=O)Nc1cccc(Oc2ncnc3cc(OCCOC)c(OC)cc23)c1 [Ex 224, ethyl 2-[3-tert-butyl-5-(3-{3-[6-methoxy-7-(2-methoxyethoxy)quinazolin-4-yloxy]phenyl}ureido)-1H-pyrazol-1-yl]acetate hydrochloride] | > 1000 nM | > 1000 nM | > 1000 nM | > 1000 nM | > 1000 nM
COCCOc1cc2ncnc(Sc3cccc(NC(=O)Nc4cc(C(C)(CF)CF)nn4-c4ccccc4)c3)c2cc1OC [Ex 238, 1-[3-(1,3-difluoro-2-methylpropan-2-yl)-1-phenyl-1H-pyrazol-5-yl]-3-{3-[6-methoxy-7-(2-methoxyethoxy)quinazolin-4-ylthio]phenyl}urea] | > 1000 nM | > 1000 nM | > 1000 nM | < 250 nM | > 1000 nM
COCCOc1cc2ncnc(Sc3cccc(NC(=O)Nc4cc(C(F)(F)F)nn4-c4ccc(C)cc4)c3)c2cc1OC [Ex 243, 1-{3-[6-methoxy-7-(2-methoxyethoxy)quinazolin-4-ylthio]phenyl}-3-[1-p-tolyl-3-(trifluoromethyl)-1H-pyrazol-5-yl]urea] | > 1000 nM | > 1000 nM | > 1000 nM | 250 to 500 nM | 250 to 500 nM
COCCOc1cc2ncnc(Sc3cccc(NC(=O)Nc4cc(C(F)(F)F)n(-c5ccccc5)n4)c3)c2cc1OC [Ex 244, 1-{3-[6-methoxy-7-(2-methoxyethoxy)quinazolin-4-ylthio]phenyl}-3-[1-phenyl-5-(trifluoromethyl)-1H-pyrazol-3-yl]urea] | > 1000 nM | > 1000 nM | > 1000 nM | > 1000 nM | > 1000 nM
COc1cc2c(Oc3cccc(NC(=O)Nc4ccc(OC)c(C(F)(F)F)c4)c3)ncnc2cc1OCCN1CCOCC1 [Ex 250, 1-(4-methoxy-3-(trifluoromethyl)phenyl)-3-(3-(6-methoxy-7-(2-morpholinoethoxy)quinazolin-4-yloxy)phenyl)urea] | < 250 nM | < 250 nM | < 250 nM | 250 to 500 nM | > 1000 nM
COc1cc2c(Oc3cccc(NC(=O)Nc4cc(C(C)(C)F)no4)c3)ncnc2cc1O [Ex 257, 1-(3-(2-fluoropropan-2-yl)isoxazol-5-yl)-3-(3-(7-hydroxy-6-methoxyquinazolin-4-yloxy)phenyl)urea] | < 250 nM | < 250 nM | < 250 nM | 250 to 500 nM | 500 to 1000 nM
CCOc1cc2c(Oc3cccc(NC(=O)Nc4cc(C(C)(C)C(F)(F)F)on4)c3)ncnc2cc1OC [Ex 260, 1-(3-(6-ethoxy-7-methoxyquinazolin-4-yloxy)phenyl)-3-(5-(1,1,1-trifluoro-2-methylpropan-2-yl)isoxazol-3-yl)urea] | < 250 nM | < 250 nM | < 250 nM | < 250 nM | < 250 nM
COCCOc1cc2ncnc(Oc3cccc(NC(=O)Nc4cc(C(C)(C)C)nn4-c4ccc(C)cc4)c3)c2cc1OC [Ex 276, 1-(3-tert-butyl-1-p-tolyl-1H-pyrazol-5-yl)-3-(3-(6-methoxy-7-(2-methoxyethoxy)quinazolin-4-yloxy)phenyl)urea] | > 1000 nM | > 1000 nM | < 250 nM | < 250 nM | 
COc1cc2ncnc(Oc3cc(NC(=O)Nc4cc(C(C)(CF)CF)on4)ccc3F)c2cc1OC [Ex 294, 1-(5-(1,3-difluoro-2-methylpropan-2-yl)isoxazol-3-yl)-3-(3-(6,7-dimethoxyquinazolin-4-yloxy)-4-fluorophenyl)urea] | < 250 nM | < 250 nM | < 250 nM | < 250 nM | 
COc1cc2ncnc(Sc3cccc(NC(=O)Nc4cc(C(C)(C)C)nn4Cc4ccccc4)c3)c2cc1OC [Ex 358, 1-(1-benzyl-3-tert-butyl-1H-pyrazol-5-yl)-3-(3-(6,7-dimethoxyquinazolin-4-ylthio)phenyl)urea] | > 1000 nM | > 1000 nM | < 250 nM | 250 to 500 nM | 
COc1cc2ncnc(Oc3cccc(NC(=O)Nc4cc(C(C)(C)C)nn4-c4cccc(F)c4)c3)c2cc1OC [Ex 359, 1-(3-tert-butyl-1-(3-fluorophenyl)-1H-pyrazol-5-yl)-3-(3-(6,7-dimethoxyquinazolin-4-yloxy)phenyl)urea] | > 1000 nM | > 1000 nM | < 250 nM | < 250 nM | 
COc1cc2ncnc(Sc3cccc(NC(=O)Nc4cc(C(C)(C)C#N)no4)c3)c2cc1OC [Ex 381, 1-(3-(2-cyanopropan-2-yl)isoxazol-5-yl)-3-(3-(6,7-dimethoxyquinazolin-4-ylthio)phenyl)urea] | < 250 nM | < 250 nM | < 250 nM | < 250 nM | 

More lines, now with the values ahead:

Kd [1] | Kd [2] | Kd [3] | IC50 [4] | EC50 [5] | Structure (SMILES)
< 250 nM | < 250 nM | < 250 nM | < 250 nM | 250 to 500 nM | COc1cc2ncnc(Oc3cccc(NC(=O)Nc4cc(C(C)(C)C)on4)c3C)c2cc1OC [Ex290, 1-(5-tert-butylisoxazol-3-yl)-3-(3-(6,7-dimethoxyquinazolin-4-yloxy)-2-methylphenyl)urea]
< 250 nM | < 250 nM | < 250 nM | 500 to 1000 nM | > 1000 nM | COCCOc1cc2ncnc(Oc3cccc(NC(=O)Nc4cc(C(C)C)on4)c3)c2cc1OC [Ex 206, 1-(5-isopropylisoxazol-3-yl)-3-(3-(6-methoxy-7-(2-methoxyethoxy)quinazolin-4-yloxy)phenyl)urea]
< 250 nM | < 250 nM | < 250 nM | 500 to 1000 nM | > 1000 nM | COCCOc1cc2ncnc(Oc3cccc(NC(=O)Nc4cc(C(F)(F)F)nn4C)c3)c2cc1OC [Ex 220, 1-{3-[6-methoxy-7-(2-methoxyethoxy)quinazolin-4-yloxy]phenyl}-3-[1-methyl-3-(trifluoromethyl)-1H-pyrazol-5-yl]urea]
< 250 nM | < 250 nM | < 250 nM | 250 to 500 nM | > 1000 nM | COCCOc1cc2ncnc(Sc3cccc(NC(=O)Nc4cc(C(C)C)on4)c3)c2cc1OC [Ex 232, 1-(5-isopropylisoxazol-3-yl)-3-(3-(6-methoxy-7-(2-methoxyethoxy)quinazolin-4-ylthio)phenyl)urea]
< 250 nM | < 250 nM | < 250 nM | 250 to 500 nM | > 1000 nM | COCCOc1cc2ncnc(Sc3cccc(NC(=O)Nc4cc(C(F)(F)F)nn4C)c3)c2cc1OC [Ex 239, 1-{3-[6-methoxy-7-(2-methoxyethoxy)quinazolin-4-ylthio]phenyl}-3-[1-methyl-3-(trifluoromethyl)-1H-pyrazol-5-yl]urea]
> 1000 nM | > 1000 nM | > 1000 nM | 500 to 1000 nM | > 1000 nM | COc1cc2ncnc([S+]([O-])c3cccc(NC(=O)Nc4cc(C(C)(C)C)on4)c3)c2cc1OC (centres unmarked) [Ex 253, 1-(5-tert-butylisoxazol-3-yl)-3-(3-(6,7-dimethoxyquinazolin-4-ylsulfinyl)phenyl)urea]
< 250 nM | < 250 nM | < 250 nM | < 250 nM | < 250 nM | COc1cc2c(Oc3cccc(NC(=O)Nc4cc(C(C)(C)C)on4)c3)ncnc2cc1OCCCN1CCS(=O)(=O)CC1 [Ex 256, 1-(5-tert-butyl-isoxazol-3-yl)-3-(3-{7-[3-(1,1-dioxo-thiomorpholin-4-yl)-propoxy]-6-methoxy-quinazolin-4-yloxy}-phenyl)-urea]
< 250 nM | < 250 nM | < 250 nM | < 250 nM | 250 to 500 nM | COc1cc2ncnc(Oc3cccc(NC(=O)Nc4cc(C(C)(C)F)no4)c3)c2cc1O [Ex 258, 1-(3-(2-fluoropropan-2-yl)isoxazol-5-yl)-3-(3-(6-hydroxy-7-methoxyquinazolin-4-yloxy)phenyl)urea]
> 1000 nM | > 1000 nM | < 250 nM | < 250 nM |  | COc1cc2ncnc(Sc3cccc(NC(=O)Nc4cc(C(C)(C)C)nn4-c4ccc(C(C)(C)C)cc4)c3)c2cc1OC [Ex 370, 1-(3-tert-butyl-1-(4-tert-butylphenyl)-1H-pyrazol-5-yl)-3-(3-(6,7-dimethoxyquinazolin-4-ylthio)phenyl)urea]
